Experimental data: ChEMBL document CHEMBL1201862, “PubChem BioAssay data set” (2004)
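A five-concentration, 48-hour dose response in 96-well plates underlies each endpoint, interpolated linearly between surrounding concentrations. GI50 marks 50% less growth.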 Active and inactive are the calls of the source. No stated cut-off is given here; in the data, active = GI50 up to about 1.1 µM and inactive = higher.

Key:
Assay in all cases: inhibition of tumour cell growth, NCI panel, 48 h
[1] = test system: OVCAR-3
[2] = test system: SN12C
[3] = test system: IGROV-1
[4] = test system: MDA-MB-231
[5] = test system: HOP-62
[6] = test system: SF-268
[7] = test system: M14
[8] = test system: OVCAR-5
[9] = test system: Malme-3M
[10] = test system: DU-145
[11] = test system: A549
[12] = test system: RXF 393
[13] = test system: SK-MEL-5
[14] = test system: HCC 2998
[15] = test system: SK-OV-3
[16] = test system: Hs-578T
[17] = test system: SR
[18] = test system: OVCAR-8
[19] = test system: COLO 205
[20] = test system: CCRF-CEM

Structure (SMILES)	GI50 [1]	GI50 [2]	GI50 [3]	GI50 [4]	GI50 [5]	GI50 [6]	GI50 [7]	GI50 [8]	GI50 [9]	GI50 [10]	GI50 [11]	GI50 [12]	GI50 [13]	GI50 [14]	GI50 [15]	GI50 [16]	GI50 [17]	GI50 [18]	GI50 [19]	GI50 [20]
O=S1(=O)CCN(c2ccccc2CC(c2c[nH]c3ccccc23)c2c[nH]c3ccccc23)CC1	5.53 µM (inactive)	5.02 µM (inactive)	6.93 µM (inactive)	6.92 µM (inactive)	13.6 µM (inactive)	5.19 µM (inactive)	4.35 µM (inactive)	14.1 µM (inactive)	11.5 µM (inactive)	7.43 µM (inactive)	8.41 µM (inactive)	7.03 µM (inactive)	6.61 µM (inactive)	3.64 µM (inactive)	8.67 µM (inactive)	7.71 µM (inactive)	3.08 µM (inactive)	8.55 µM (inactive)	3.03 µM (inactive)	1.99 µM (inactive)
C=CC(=O)N1C/C(=C\c2ccc([N+](=O)[O-])cc2)C(=O)/C(=C/c2ccc([N+](=O)[O-])cc2)C1	0.132 µM (active)	0.195 µM (active)	0.0728 µM (active)	0.161 µM (active)	0.222 µM (active)	< 0.0403 µM (active)	0.19 µM (active)	0.29 µM (active)	0.201 µM (active)	0.621 µM (active)	0.427 µM (active)	0.142 µM (active)	0.719 µM (active)	0.161 µM (active)	1.52 µM (inactive)	< 0.0422 µM (active)	0.289 µM (active)	< 0.0391 µM (active)	0.0483 µM (active)	0.0565 µM (active)
O=c1[nH]cc(/C=N\Nc2ccccc2)c(=O)[nH]1	21.8 µM (inactive)	> 100 µM (inactive)	> 100 µM (inactive)	> 100 µM (inactive)	> 10 µM (inactive)	> 100 µM (inactive)	> 100 µM (inactive)	> 100 µM (inactive)	> 100 µM (inactive)	> 100 µM (inactive)	> 100 µM (inactive)	> 100 µM (inactive)	11.6 µM (inactive)	> 100 µM (inactive)	> 100 µM (inactive)	> 100 µM (inactive)	> 100 µM (inactive)	> 100 µM (inactive)	66.2 µM (inactive)	> 100 µM (inactive)
O=C(OC(=C(c1ccccc1)c1ccccc1)N1CCCC1=S)C(c1ccccc1)c1ccccc1	7.6 µM (inactive)	> 10 µM (inactive)	> 10 µM (inactive)	7.82 µM (inactive)	> 10 µM (inactive)	> 10 µM (inactive)	> 10 µM (inactive)	> 10 µM (inactive)	> 10 µM (inactive)	> 10 µM (inactive)	4.67 µM (inactive)	> 10 µM (inactive)	> 10 µM (inactive)	9.44 µM (inactive)	9.18 µM (inactive)	> 10 µM (inactive)	> 10 µM (inactive)	7.96 µM (inactive)	2.21 µM (inactive)	3.94 µM (inactive)
COc1ccc2[nH]c3c(C)c4ccnc(NCCCN(C)CCCNc5ccc6ncn7c8ccccc8c(=O)c5c67)c4c(C)c3c2c1	1.87 µM (inactive)	0.0621 µM (active)	0.158 µM (active)	0.322 µM (active)	0.275 µM (active)	0.352 µM (active)	0.998 µM (active)	1.3 µM (inactive)	1.07 µM (active)	0.796 µM (active)	0.106 µM (active)	0.256 µM (active)	0.573 µM (active)	0.0578 µM (active)	2.29 µM (inactive)	3.15 µM (inactive)	0.0197 µM (active)	0.348 µM (active)	0.272 µM (active)	0.0394 µM (active)
CC1(C)Oc2ccccc2OC1O (centres undefined)	> 100 µM (inactive)	> 100 µM (inactive)	> 100 µM (inactive)	> 100 µM (inactive)	> 100 µM (inactive)	> 100 µM (inactive)	> 100 µM (inactive)	> 100 µM (inactive)	> 100 µM (inactive)	> 100 µM (inactive)	> 100 µM (inactive)	> 100 µM (inactive)	> 100 µM (inactive)	> 100 µM (inactive)	> 100 µM (inactive)	> 100 µM (inactive)	> 100 µM (inactive)	> 100 µM (inactive)	> 100 µM (inactive)	> 100 µM (inactive)
Cc1ccc(S(=O)(=O)NN=C2CCCCCCCCCCC2)cc1	> 100 µM (inactive)	> 100 µM (inactive)	> 100 µM (inactive)	> 100 µM (inactive)	> 100 µM (inactive)	> 100 µM (inactive)	> 100 µM (inactive)	> 100 µM (inactive)	> 100 µM (inactive)	> 100 µM (inactive)	> 100 µM (inactive)	58.1 µM (inactive)	> 100 µM (inactive)	> 100 µM (inactive)	> 100 µM (inactive)	35.7 µM (inactive)	> 100 µM (inactive)	> 100 µM (inactive)	> 100 µM (inactive)	> 100 µM (inactive)
CCOC(=O)/C=C(/C(=O)OCC)n1ccc(=O)n(CC(=O)OCC)c1=O	1.1 µM (active)	1.1 µM (active)	1.61 µM (inactive)	2.04 µM (inactive)	17.2 µM (inactive)	3.11 µM (inactive)	1.37 µM (inactive)	1.67 µM (inactive)	0.668 µM (active)	5.01 µM (inactive)	6.17 µM (inactive)	1.15 µM (inactive)	2.36 µM (inactive)	2.36 µM (inactive)	14.4 µM (inactive)	4.9 µM (inactive)	1.35 µM (inactive)	2.39 µM (inactive)	0.284 µM (active)	0.169 µM (active)
c1cc2n(n1)CCN2	2280 µM (inactive)	1240 µM (inactive)	7380 µM (inactive)	> 1500 µM (inactive)	3720 µM (inactive)	1550 µM (inactive)	486 µM (inactive)	4300 µM (inactive)	3000 µM (inactive)	3320 µM (inactive)	1050 µM (inactive)	1390 µM (inactive)	847 µM (inactive)	1690 µM (inactive)	3040 µM (inactive)	> 1470 µM (inactive)	733 µM (inactive)	875 µM (inactive)	3680 µM (inactive)	186 µM (inactive)
OCCOCCN1CCN(c2nc(N3CCCC3)c3nc(Cl)c(NCc4ccccc4)nc3n2)CC1	13.8 µM (inactive)	15.6 µM (inactive)	18.3 µM (inactive)	16.9 µM (inactive)	12.6 µM (inactive)	16.5 µM (inactive)	11.6 µM (inactive)	15.1 µM (inactive)	15.8 µM (inactive)	11.9 µM (inactive)	13 µM (inactive)	1.98 µM (inactive)	5.55 µM (inactive)	4.29 µM (inactive)	17.2 µM (inactive)	17.7 µM (inactive)	4.38 µM (inactive)	17.4 µM (inactive)	7.35 µM (inactive)	12.7 µM (inactive)
O=C(NO)c1cccc(OCc2ccc(Br)cc2)c1	3.85 µM (inactive)	2.79 µM (inactive)	3.35 µM (inactive)	12.3 µM (inactive)	4.97 µM (inactive)	4.03 µM (inactive)	2.79 µM (inactive)	12.6 µM (inactive)	2.37 µM (inactive)	3.13 µM (inactive)	5.28 µM (inactive)	3.52 µM (inactive)	3.98 µM (inactive)	7.52 µM (inactive)	5.21 µM (inactive)	13.1 µM (inactive)	2.29 µM (inactive)	1.32 µM (inactive)	8.11 µM (inactive)	1.91 µM (inactive)
COC1=C(Br)[C@H](O)[C@@]2(C=C1Br)CC(C(=O)NCCCOc1c(Br)cc(C(O)CNC(C)=O)cc1Br)=NO2 (some centres undefined) [APLYSINAMISINE III]	> 10 µM (inactive)	> 10 µM (inactive)	> 10 µM (inactive)	> 10 µM (inactive)	> 10 µM (inactive)	> 10 µM (inactive)	8.73 µM (inactive)	> 10 µM (inactive)	6.03 µM (inactive)	> 10 µM (inactive)	> 10 µM (inactive)	> 10 µM (inactive)	4.86 µM (inactive)	> 10 µM (inactive)	> 10 µM (inactive)	> 10 µM (inactive)	0.00518 µM (active)	> 10 µM (inactive)	> 10 µM (inactive)	> 10 µM (inactive)
CCc1nc(N)nc(N)c1-c1ccc(Cl)c(Cl)c1 [ETOPRINE]	24.9 µM (inactive)	6.79 µM (inactive)	2.96 µM (inactive)	> 100 µM (inactive)	2.93 µM (inactive)	6.62 µM (inactive)	0.675 µM (active)	7.06 µM (inactive)	5.79 µM (inactive)	11 µM (inactive)	0.789 µM (active)	59.3 µM (inactive)	4.65 µM (inactive)	12.4 µM (inactive)	> 100 µM (inactive)	43 µM (inactive)	0.755 µM (active)	–	8.43 µM (inactive)	> 100 µM (inactive)
